Experimental data taken from PMC5848165 (Toxins, 2018).
Residues, ends and D or L forms follow the SMILES beside them.

What was measured:
[1] = target: T1, Nav1.5 R800D (Rattus norvegicus, UniProt P15389, R801D); test: Whole-cell patch clamp, Nav1.5 mutant R800D in HEK293 cells; format: cell-based; conditions: 1 µM
T1 construct: expressed in transfected cells; host or cells: HEK293 (HEK293T) cells, transient
Source text: We next investigated the critical residues in DIIS3-S4 linker that determined the sensitivity of Nav1.7 to JZTX-34. An acidic residue, D816, is present in the DIIS3-S4 linker of Nav1.7, while the corresponding residue in Nav1.5 is an alkaline amino acid, R800. To determine whether the acidic residue D816 occupies an important role in toxin binding, we constructed two mutants: D816R of Nav1.7 and R800D of Nav1.5. One µM of JZTX-34 inhibited 54.3 ± 5.2% of WT Nav1.7 currents (Figure 4A), but only 16.8 ± 4.6% currents of D816R were inhibited at the same concentration (Figure 4B). […]
The HEK293T cells were maintained in standard culture conditions (5% CO2 and 37 °C). […] After culturing for 36–72 h, cells with obvious green fluorescence were selected for sodium currents recordings the internal solution for sodium currents recording that contained (in mM) 140 CsF, 5 NaCl, 10 HEPES, 3 Na2-ATP, and 10 EGTA. […]
Sodium currents were recorded from DRG, HEK293, and ND cells by the whole-cell patch-clamp technique at 25 °C. […] Experiments date were acquired from whole-cell Axon 700B patch clamp amplifier (Molecular Devices, Sunnyvale, CA, USA) and analyzed by the program Clampfit10.0 (Molecular Devices, Sunnyvale, CA, USA) and Sigmaplot. […]
Data from Axon 700B patch clamp were analyzed by Clampfit10.0 (Molecular Devices, Sunnyvale, CA, USA). […]

[2] = test system: formalin-induced paw licking response in mice; test: Formalin-induced paw licking; format: in vivo, mouse (Kunming); conditions: for paw licking time, early phase: control 145.5 s; for paw licking time, early phase / paw licking time, late phase: n = 6; for paw licking time, late phase: control 414.5 s
Description: Since Nav1.7 plays an important role in pain, the analgesic effects of JZTX-34 were examined in three animal models (formalin-induced paw licking, acetic acid-induced writhing, and hot plate). Intraplantar injection of formalin causes pain and can be divided into two phases. The early phase was neurogenic pain and usually occurred within […]), and the late phase was inflammatory pain lasting from 15 to 30 min).
Figure 6 Effects of JZTX-34 on pain. (A) Effects of JZTX-34 on the early phase (0–5 min) and late phase (15–30 min) of formalin-induced paw licking response in mice. (B) Effects of JZTX-34 on the acetic acid-induced writhing response in mice. (C)Effects of JZTX-34 on the hot plate test in mice.
The synthesized JZTX-34 was obtained according to the procedure as previously described. […] Rats (Sprague-Dawley) and Kunming mice were maintained in the Laboratory of Protein Chemistry of Hunan Normal University. All of the experimental involving animals were approved by the Animal Care and Use Committee of Hunan Normal University (2016-273, 13 October 2016).
Formalin test was performed according to the method described previously. […] After test samples were intraperitoneally (i.p.) injected, 5% formalin (20 μL) was injected to the plantar surface of right hind paw. The time spent licking the injected paw was counted every 5 min. Phase I was defined as 0–10 min, and Phase II defined as […].
Data from Axon 700B patch clamp were analyzed by Clampfit10.0 (Molecular Devices, Sunnyvale, CA, USA). Dose-response curves were fitted by the Hill logistic equation: y = 1 − (1 − fmax)/[…]. In this equation, n stands an empirical Hill coefficient and fmax is the fraction of current resistant to inhibition at high toxin (Tx) concentration. The G-V curves were obtained by calculating the conductance (G) at each voltage (V) using the equation G = I/(V1 − Vrev), with Vrev being the reversal potential determined for each cell individually. G-V curves were fitted using a Boltzmann equation—y = 1/(1 + exp[(Va − V)/κ])—in which Va, V, and κ represent midpoint voltage of kinetics, test potential, and slope factor, respectively. […] Statistical significance was calculated using Student’s t-test and was defined as p < 0.05.

T1 sequence (Q07699 19-218): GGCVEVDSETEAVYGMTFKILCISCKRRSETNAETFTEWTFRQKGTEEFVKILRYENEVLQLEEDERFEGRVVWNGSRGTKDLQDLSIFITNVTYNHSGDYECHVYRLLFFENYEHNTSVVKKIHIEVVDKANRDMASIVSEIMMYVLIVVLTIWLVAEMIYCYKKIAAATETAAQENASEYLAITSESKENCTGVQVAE
T1 sequence (P15389 whole entry R801D): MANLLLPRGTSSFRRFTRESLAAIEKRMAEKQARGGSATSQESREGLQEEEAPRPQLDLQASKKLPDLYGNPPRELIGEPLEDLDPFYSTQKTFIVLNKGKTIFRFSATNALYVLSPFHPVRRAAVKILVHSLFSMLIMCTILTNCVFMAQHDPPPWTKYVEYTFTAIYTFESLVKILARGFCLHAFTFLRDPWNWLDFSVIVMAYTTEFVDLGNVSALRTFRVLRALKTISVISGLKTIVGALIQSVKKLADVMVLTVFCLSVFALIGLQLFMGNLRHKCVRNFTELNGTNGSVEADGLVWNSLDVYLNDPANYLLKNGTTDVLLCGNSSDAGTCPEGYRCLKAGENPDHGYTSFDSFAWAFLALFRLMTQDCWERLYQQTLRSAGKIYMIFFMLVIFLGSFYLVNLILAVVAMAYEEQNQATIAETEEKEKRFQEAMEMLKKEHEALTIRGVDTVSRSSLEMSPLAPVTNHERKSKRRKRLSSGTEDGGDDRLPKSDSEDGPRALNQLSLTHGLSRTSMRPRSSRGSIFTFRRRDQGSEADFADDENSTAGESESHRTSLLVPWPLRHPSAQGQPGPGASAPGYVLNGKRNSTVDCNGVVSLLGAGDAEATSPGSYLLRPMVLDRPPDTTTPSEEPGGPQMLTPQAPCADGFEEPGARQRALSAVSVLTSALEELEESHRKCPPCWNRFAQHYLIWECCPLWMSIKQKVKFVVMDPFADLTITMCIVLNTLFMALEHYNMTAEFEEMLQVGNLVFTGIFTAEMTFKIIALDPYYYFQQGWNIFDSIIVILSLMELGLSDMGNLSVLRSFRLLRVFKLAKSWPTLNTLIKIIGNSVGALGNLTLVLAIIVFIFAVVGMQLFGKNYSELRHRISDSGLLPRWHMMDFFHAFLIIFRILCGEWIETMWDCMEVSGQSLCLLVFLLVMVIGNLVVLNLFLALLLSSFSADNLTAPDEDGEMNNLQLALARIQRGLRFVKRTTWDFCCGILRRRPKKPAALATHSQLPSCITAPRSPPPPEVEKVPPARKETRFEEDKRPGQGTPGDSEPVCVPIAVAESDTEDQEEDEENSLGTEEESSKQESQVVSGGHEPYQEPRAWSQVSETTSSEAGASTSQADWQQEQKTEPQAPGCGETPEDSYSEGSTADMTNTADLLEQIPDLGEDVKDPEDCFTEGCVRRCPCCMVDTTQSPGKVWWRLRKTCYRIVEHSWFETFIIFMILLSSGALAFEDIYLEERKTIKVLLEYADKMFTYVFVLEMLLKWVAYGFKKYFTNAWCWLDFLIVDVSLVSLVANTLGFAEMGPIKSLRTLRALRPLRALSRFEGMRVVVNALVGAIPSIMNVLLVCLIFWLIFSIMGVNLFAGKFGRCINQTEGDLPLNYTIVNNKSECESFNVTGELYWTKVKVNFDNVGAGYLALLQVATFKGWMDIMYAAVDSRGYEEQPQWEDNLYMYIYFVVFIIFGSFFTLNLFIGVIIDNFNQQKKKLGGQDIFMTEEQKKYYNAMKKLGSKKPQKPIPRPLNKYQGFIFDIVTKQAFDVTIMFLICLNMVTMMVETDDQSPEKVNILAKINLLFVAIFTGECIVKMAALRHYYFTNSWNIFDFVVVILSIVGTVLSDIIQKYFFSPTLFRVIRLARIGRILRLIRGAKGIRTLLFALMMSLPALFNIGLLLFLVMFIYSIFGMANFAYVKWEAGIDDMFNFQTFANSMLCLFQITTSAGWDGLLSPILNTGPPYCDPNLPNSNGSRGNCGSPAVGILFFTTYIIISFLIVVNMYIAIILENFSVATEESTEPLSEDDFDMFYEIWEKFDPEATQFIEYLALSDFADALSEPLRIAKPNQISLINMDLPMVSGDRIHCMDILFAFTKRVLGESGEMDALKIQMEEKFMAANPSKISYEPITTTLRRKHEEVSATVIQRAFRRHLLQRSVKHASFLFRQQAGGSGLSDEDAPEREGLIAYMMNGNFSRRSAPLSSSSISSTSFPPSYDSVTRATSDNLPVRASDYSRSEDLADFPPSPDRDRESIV

**Q.** Which “inhibition of Nav1.5 R800D currents” value [1] does the source give for `CC(C)C[C@@H]1NC(=O)[C@H](Cc2c[nH]c3ccccc23)NC(=O)[C@H](CCC(=O)O)NC(=O)[C@H](CCCNC(=N)N)NC(=O)[C@@H](NC(=O)[C@H](C)N)CSSC[C@@H]2NC(=O)[C@@H]3CSSC[C@@H](C(=O)N[C@H](C(=O)N[C@@H](Cc4c[nH]c5ccccc45)C(=O)N[C@@H](CC(=O)O)C(=O)N[C@@H](Cc4c[nH]c5ccccc45)C(=O)N[C@H](C(=O)N[C@H](C(=O)O)C(C)C)[C@@H](C)O)C(C)C)NC(=O)[C@H](Cc4c[nH]cn4)NC(=O)[C@H](Cc4ccc(O)cc4)NC(=O)[C@@H]4CCCN4C(=O)[C@H](Cc4c[nH]c5ccccc45)NC(=O)[C@H](CCCCN)NC(=O)[C@H](CCCCN)NC(=O)[C@H](CCCNC(=N)N)NC(=O)[C@H](CSSC[C@H](NC(=O)CNC(=O)CNC1=O)C(=O)N[C@@H](CO)C(=O)N[C@@H](CCCCN)C(=O)N[C@@H](CC(=O)O)C(=O)N[C@@H](C)C(=O)N[C@@H](CC(=O)O)C(=O)N3)NC(=O)[C@H](CCC(=O)O)NC(=O)[C@H](CC(C)C)NC(=O)[C@H](Cc1c[nH]cn1)NC(=O)[C@H](C)NC2=O` [JZTX-34, Jingzhaotoxin-34] (HELM PEPTIDE1{A.C.R.E.W.L.G.G.C.S.K.D.A.D.C.C.A.H.L.E.C.R.K.K.W.P.Y.H.C.V.W.D.W.T.V}$PEPTIDE1,PEPTIDE1,2:R3-16:R3|PEPTIDE1,PEPTIDE1,9:R3-21:R3|PEPTIDE1,PEPTIDE1,15:R3-29:R3$$$V2.0; N-terminus and C-terminus assumed) here?
**A.** obviously inhibited

**Q.** What about the “paw licking time, early phase” value ([2]; 0.5 mg/kg i.p.) of the same compound?
**A.** 125.5 s

**Q.** And the “paw licking time, late phase” value ([2]; 0.5 mg/kg i.p.)?
**A.** 282.2 s

**Q.** What about the “paw licking time, early phase” value ([2]; 1 mg/kg i.p.) of the same compound?
**A.** 50.1 s

**Q.** What about the “paw licking time, late phase” value ([2]; 1 mg/kg i.p.) of the same compound?
**A.** 263.6 s

**Q.** What about the “paw licking time, early phase” value ([2]; 2 mg/kg i.p.) of the same compound?
**A.** 34.7 s

**Q.** What about the “paw licking time, late phase” value ([2]; 2 mg/kg i.p.) of the same compound?
**A.** 148.0 s

**Q.** What about the “formalin first phase, efficacy vs morphine” value ([2]; JZTX-34 2 mg/kg vs morphine 5 mg/kg) of the same compound?
**A.** equipotent with morphine (5 mg/kg)
